Test results from patent publication US20230286973A1, “PROTEIN SECRETION INHIBITORS” (KEZAR LIFE SCIENCES, priority 2020, published 2023).

Key:
[1] = test system: PD1-ss+10aa/Gaussia Luciferase; test: Dox-Induced PD1-ss-Gluc Assay; type: cell-based; conditions: 24 hr Dox induction; 293FRT/TO cells; mean; read-out: 24 hr Dox Inducible PD1ssGluc 293FRT/TO: Mean IC50
From the text: Flp-In 293 T-REx™ cells were transfected with pcDNA™5/FRT/TO plasmid inserted with cDNA encoding Gaussia Luciferase fused to the 3′ end of cDNA encoding PD1 signal sequence plus 10 amino acids (N-[…]-C) (SEQ ID NO: 1). Transfected cells were selected for resistance to the selectable markers Hygromycin and Blasticidin to create a stable cell line that contained the PD1-ss+10aa/Gaussia Luciferase cDNA insert whose expression was regulated under the T-REx™ system. The day before assay, cells were trypsinized and plated in 384-well tissue culture plates. The next day, compound dilutions in DMSO/media containing doxycycline were added to the wells and incubated at 37° C., 5% CO2.
(§1) For chemical structures that include one or more stereoisomers, but are illustrated without indicating stereochemistry, the assay data refers to a mixture of stereoisomers.

[2] = test system: IL-2-FL/Gaussia Luciferase; test: Dox Induced IL2-FL-Gluc Assay; type: cell-based; conditions: for IC50: 24 hr Dox induction, 293FRT/TO cells, mean, read-out: 24 hr Dox Inducible IL2FLGluc 293FRT/TO: Mean IC50; for 24 hr Dox Inducible IL2FLGluc 293FRT/TO: IL2/PD1: ratio of IL2FLGluc IC50 to PD1ssGluc IC50, '<=>' given where both are I.A.
From the text: Flp-In 293 T-REx™ cells were transfected with pcDNA™5/FRT/TO plasmid inserted with cDNA encoding Gaussia Luciferase fused to the 3′ end of cDNA encoding full length IL-2 (amino acids 1-153). Transfected cells were selected for resistance to the selectable markers Hygromycin and Blasticidin to create a stable cell line that contained the IL-2-FL/Gaussia Luciferase cDNA insert whose expression was regulated under the T-REx™ system. The day before assay, cells were trypsinized and plated in 384-well tissue culture plates. The next day, compound dilutions in DMSO/media containing doxycycline were added to the wells and incubated at 37° C., 5% CO2.
as §1

[3] = test system: multiple myeloma cell line NCI-H929; test: H929 Cell Viability Assay; type: cell-based, human; conditions: Homo sapiens, NCI-H929, 48 h, NCI-H929 cells, Celltiter-Glo
Description: The human multiple myeloma cell line NCI-H929 was cultured in Advanced RPMI 1640 media (Gibco®) supplemented with 6% fetal bovine serum, 2 mM Glutamine, and 1× Penicillin/Streptomycin. On the day of assay, cells were resuspended in RPMI 1640 media supplemented with 10% fetal bovine serum, 2 mM Glutamine, and 1× Penicillin/Streptomycin and plated in 384-well tissue culture plates and treated with compound dilutions in DMSO/media. Plates were incubated at 37° C., 5% CO2 for 48 hours. After 48 hours, Celltiter-Glo® (Promega) was added to each well and luciferase signal was quantified using Tecan Infinite M1000 Pro for cell viability determination.
as §1

[4] = test system: multiple myeloma cell line U266B1; test: U266 Cell Viability Assay; type: cell-based, human; conditions: Homo sapiens, U-266, 48 h, U266B1 cells, Celltiter-Glo
Description: The human multiple myeloma cell line U266B1 was cultured in RPMI 1640 media supplemented with 10% fetal bovine serum, 2 mM Glutamine, and 1× Penicillin/Streptomycin. Cells were plated in 384-well tissue culture plates and treated with compound dilutions in DMSO/media. Plates were incubated at 37° C., 5% CO2 for 48 hours. After 48 hours, Celltiter-Glo® (Promega) was added to each well and luciferase signal was quantified using Tecan Infinite M1000 Pro for cell viability determination.
as §1

[5] = Liver Microsome Stability Assay (rat); conditions: rat liver microsomes, with NADPH, 1.0 uM compound
Description: (§2) Stability of a compound was assessed in the presence of liver microsomes from various sources—mouse, rat, monkey and human liver microsomes. 1.0 uM compound, 0.4% DMSO in 0.1 M Potassium Phosphate with 1.0 mg/mL liver microsomes, were incubated at 37° C. with or without 1 mM NADPH. The samples were quenched at 0, and 30 minutes.

[6] = Liver Microsome Stability Assay (mouse); conditions: mouse liver microsomes, with NADPH, 1.0 uM compound
Description: as §2

[7] = Liver Microsome Stability Assay (human); conditions: human liver microsomes, with NADPH, 1.0 uM compound
Description: as §2

[8] = Liver Microsome Stability Assay (monkey); conditions: monkey liver microsomes, with NADPH, 1.0 uM compound
Description: as §2

SMILES | IC50 [1] [µM] | IC50 [2] [µM] | EC50 [3] [µM] | EC50 [4] [µM] | Liver Microsome Stability (Multiple Species): Rat - % Remaining after 30 min w/NADPH [5] [%] | Liver Microsome Stability (Multiple Species): Mouse - % Remaining after 30 min w/NADPH [6] [%] | Liver Microsome Stability (Multiple Species): Human - % Remaining after 30 min w/NADPH [7] [%] | Liver Microsome Stability (Multiple Species): Monkey - % Remaining after 30 min w/NADPH [8] [%] | 24 hr Dox Inducible IL2FLGluc 293FRT/TO: IL2/PD1 [2]
O=C(Nc1nc([C@H]2CCCN2c2ccccc2)cs1)c1cccn1Cc1cnn[nH]1 [Compound C29, (R)-1-((1H-1,2,3-triazol-5-yl)methyl)-N-(4-(1-phenylpyrrolidin-2-yl)thiazol-2-yl)-1H-pyrrole-2-carboxamide] | 4.89 | > 25 | > 25 | > 25 | 17 | 37.5 | 46.1 | 41.9 | >5.1
C#CCCCn1cccc1C(=O)Nc1nc([C@H]2CCCN2c2ccccc2)cs1 [Compound C31, (R)-1-(pent-4-yn-1-yl)-N-(4-(1-phenylpyrrolidin-2-yl)thiazol-2-yl)-1H-pyrrole-2-carboxamide] | 4.12 | 7.05 | > 25 | > 25 | 5.84 | 38.7 | 53.4 | 1.3 | 1.7
C#CCn1cccc1C(=O)Nc1nc([C@H]2CCCN2c2ccccc2)cs1 [Compound C33, (R)-N-(4-(1-phenylpyrrolidin-2-yl)thiazol-2-yl)-1-(prop-2-yn-1-yl)-1H-pyrrole-2-carboxamide] | 9.67 | 6.05 | 23.8 | > 25 | 20.3 | 41.1 | 54.7 | 65 | 0.63
O=C(Nc1nc([C@H]2CCCN2c2ccccc2)cs1)c1cccn1CC1CCCCC1 [Compound C39, (R)-1-(cyclohexylmethyl)-N-(4-(1-phenylpyrrolidin-2-yl)thiazol-2-yl)-1H-pyrrole-2-carboxamide] | 2.75 | 3.35 | > 25 | > 25 | 56.6 | 64.7 | 79.7 | 53.9 | 1.2
O=C(Nc1nc([C@H]2CCCN2c2ccccc2)cs1)c1cccn1CC1=CCOCC1 [Compound C57, (R)-1-((3,6-dihydro-2H-pyran-4-yl)methyl)-N-(4-(1-phenylpyrrolidin-2-yl)thiazol-2-yl)-1H-pyrrole-2-carboxamide] | 0.357 | 1.07 | 23.3 | > 25 | 0.43 | 9.54 | 4.2 | 3.43 | 3
C#CCCn1cccc1C(=O)Nc1nc([C@H]2CCCN2c2ccccc2)cs1 [Compound C62, (R)-1-(but-3-yn-1-yl)-N-(4-(1-phenylpyrrolidin-2-yl)thiazol-2-yl)-1H-pyrrole-2-carboxamide] | 8.44 | > 25 | > 25 | > 25 | 8.75 | 35.4 | 53 | 0.74 | >3.0

Continued, in another order:

IC50 [1] [µM] | IC50 [2] [µM] | EC50 [3] [µM] | EC50 [4] [µM] | Liver Microsome Stability (Multiple Species): Rat - % Remaining after 30 min w/NADPH [5] [%] | Liver Microsome Stability (Multiple Species): Mouse - % Remaining after 30 min w/NADPH [6] [%] | Liver Microsome Stability (Multiple Species): Human - % Remaining after 30 min w/NADPH [7] [%] | Liver Microsome Stability (Multiple Species): Monkey - % Remaining after 30 min w/NADPH [8] [%] | SMILES | 24 hr Dox Inducible IL2FLGluc 293FRT/TO: IL2/PD1 [2]
5.21 | 5.62 | > 25 | > 25 | 9.91 | 37.6 | 39.8 | 5.63 | C#CCCCCn1cccc1C(=O)Nc1nc([C@H]2CCCN2c2ccccc2)cs1 [Compound C30, (R)-1-(hex-5-yn-1-yl)-N-(4-(1-phenylpyrrolidin-2-yl)thiazol-2-yl)-1H-pyrrole-2-carboxamide] | 1.1
> 25 | > 25 | > 25 | > 25 | 0.08 | 26 | 6.44 | 8.58 | O=C(Nc1nc([C@H]2CCCN2c2ccccc2)cs1)c1cccn1CC1CCS(=O)(=O)CC1 [Compound C37, (R)-1-((1,1-dioxidotetrahydro-2H-thiopyran-4-yl)methyl)-N-(4-(1-phenylpyrrolidin-2-yl)thiazol-2-yl)-1H-pyrrole-2-carboxamide] | –
0.909 | 1.64 | > 25 | > 25 | 2.9 | 29.1 | 1.94 | 9.17 | N#Cc1cccc(Cn2cccc2C(=O)Nc2nc([C@H]3CCCN3c3ccccc3)cs2)c1 [Compound C49, (R)-1-(3-cyanobenzyl)-N-(4-(1-phenylpyrrolidin-2-yl)thiazol-2-yl)-1H-pyrrole-2-carboxamide] | 1.8
3.14 | 2.06 | > 25 | > 25 | 15.1 | 54.5 | 33.8 | 33.4 | N#Cc1ccc(Cn2cccc2C(=O)Nc2nc([C@H]3CCCN3c3ccccc3)cs2)cc1 [Compound C50, (R)-1-(4-cyanobenzyl)-N-(4-(1-phenylpyrrolidin-2-yl)thiazol-2-yl)-1H-pyrrole-2-carboxamide] | 0.66
2.52 | 5 | 24.6 | 23.3 | 0.14 | 0.82 | 0.96 | 0.62 | O=C(Nc1nc([C@H]2CCCN2c2ccccc2)cs1)c1cccn1Cc1cccnc1 [Compound E20, (R)-N-(4-(1-phenylpyrrolidin-2-yl)thiazol-2-yl)-1-(pyridin-3-ylmethyl)-1H-pyrrole-2-carboxamide] | 2
